# Measured values from PubChem BioAssay (NCI).
# Values joined by “and” are separate entries in the source; they are usually repeats but may differ in a detail not shown here. Identical values can stand only once.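 Where inhibition never reached the appropriate level, the endpoint shown equals the highest concentration tested. Otherwise, values were interpolated linearly from a five-concentration, 48-hour dose response in 96-well plates. At the GI50, growth is halved. At the TGI there is no net growth.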
# Key:
# Assay in all cases: NCI tumour cell line growth inhibition, 48 h
# [1] = system: SF-539 CNS
# [2] = system: SN12C renal
# [3] = system: NCI-H460 lung
# [4] = system: SK-MEL-5 melanoma
# [5] = system: MCF7 breast
# [6] = system: MDA-MB-231 breast
# [7] = system: CAKI-1 renal
# [8] = system: OVCAR-3 ovarian
# [9] = system: UACC-257 melanoma
# [10] = system: NCI-H23 lung
Structure (SMILES),GI50 [1] [µM],TGI [1] [µM],GI50 [2],TGI [2],GI50 [3] [µM],TGI [3] [µM],GI50 [4] [µM],TGI [4],GI50 [5] [µM],TGI [5],GI50 [6] [µM],TGI [6],GI50 [7] [µM],TGI [7],GI50 [8] [µM],TGI [8],GI50 [9] [µM],TGI [9],GI50 [10] [µM],TGI [10] [µM]
NC(N)=N/N=C\c1ccc(OCc2ccccc2)cc1,1.7,4.06,1.97 µM,5.35 µM,1.77,3.47,1.62,3.24 µM,1.37,2.91 µM,1.96,5.12 µM,3.13,13.4 µM,2.2,5.75 µM,1.61,3.31 µM,9.84,24.6
CN(C)C(=S)/N=c1\ss/c(=N\C(=S)N(C)C)n1-c1cccc(Cl)c1,,> 100,,> 100 µM,,> 100,,> 100 µM,,,,,,> 100 µM,,> 100 µM,,> 100 µM,,> 100
CCCCCCCC/C=C/CCCCCCCC1=NC(C)(C)CN1C(C)(C)CO,1.68,3.34,2.25 µM,6.67 µM,1.81,3.31,1.75,3.13 µM,1.82,3.43 µM,1.6,3.77 µM,1.39,2.88 µM,1.74,3.13 µM,1.76,3.54 µM,1.77,3.46
COc1ccc(-c2ccc(OC)c(OC)c2OC)cc1,1.24,5.31,6.88 µM,> 100 µM,2.7,> 48,2.68,> 45.2 µM,1.77,> 100 µM,3.21,> 74.5 µM,1.77,> 100 µM,1.41,4.49 µM,> 73.8,> 100 µM,4.19,> 100
CN1CCN(C2=NC(=O)/C(=C\c3ccc(N(C)C)cc3)S2)CC1,> 100,> 100,> 100 µM,> 100 µM,> 100,> 100,> 100,> 100 µM,> 100,> 100 µM,74.5,> 100 µM,> 100,> 100 µM,> 100,> 100 µM,> 100,> 100 µM,> 100,> 100
CC(C)Cc1cnc(CC(C)C)c(=O)[nH]1,,,,> 100 µM,,> 100,,> 100 µM,,> 100 µM,,> 100 µM,,> 100 µM,,> 100 µM,,> 100 µM,,> 100
COc1ccc(-c2nc3ccccc3s2)cc1OC,,> 100,,> 100 µM,,59.8,,39.1 µM,,,,> 100 µM,,,,,,> 100 µM,,> 100
O=C(CC1=Nc2nnc(CCCCCCCc3nnc4n3C(=O)C(CC(=O)c3ccc5ccccc5c3)=N4)n2C1=O)c1ccc2ccccc2c1,,> 100,,> 100 µM,,> 100,,,,,,,,> 100 µM,,> 100 µM,,> 100 µM,,> 100
COC(=O)C1CC(c2ccc(OC)c(OC)c2)OC1=O (mixture of isomers),,> 100,,> 100 µM,,> 100,,> 100 µM,,,,,,> 100 µM,,> 100 µM,,> 100 µM,,> 100
Cc1cccc(N2C(=O)/C(=C/C(Cl)=C/c3ccc([N+](=O)[O-])cc3)SC2=S)c1C,2.37,6.76,2.03 µM,5.05 µM,,,1.49,2.91 µM,0.786,> 100 µM,2.2,5.52 µM,,,1.83,3.87 µM,,,1.84,4.38
COc1ccc(-n2cc(-c3ccc(OC)c(OC)c3)[nH]c2=O)cc1,,,> 100 µM,> 100 µM,> 100,> 100,> 100,> 100 µM,> 100,> 100 µM,> 100,> 100 µM,> 100,> 100 µM,> 100,> 100 µM,,,> 100,> 100
O=C(Nc1sc2c(c1C(=O)O)CCCC2)c1ccco1,47.5,> 50,8.63 µM,42 µM,23.5,> 50,> 50,> 50 µM,26.5,> 50 µM,> 50,> 50 µM,44.1,> 50 µM,> 50,> 50 µM,> 50,> 50 µM,,
c1ccc2c(c1)[nH]c1c2nc2ccccn21,,> 100,,> 100 µM,,> 100,,> 100 µM,,,,,,> 100 µM,,59.8 µM and > 100 µM,,> 100 µM,,> 100
CC(=O)[CH-]C(C)=O.CC(=O)[CH-]C(C)=O.[O-]c1ccccc1.[O-]c1ccccc1.[Ti+4],> 100,> 100,,,> 100,> 100,> 100,> 100 µM,,,,,> 100,> 100 µM,,,> 100,> 100 µM,> 100,> 100
Cc1cc(Cl)ccc1NC(=O)CCCC(=O)C1C/C(=N/O)CC/C1=N\O (centres undefined),,> 100,,> 100 µM,,> 100,,> 100 µM,,,,,,> 100 µM,,> 100 µM,,> 100 µM,,> 100
O=c1c(Cc2ccc3c(c2)OCO3)nnc2sc(-c3cc(F)c(Cl)cc3Cl)nn12,,,62.6 µM,> 100 µM,50.8,> 100,19.3,50.7 µM,38.9,> 100 µM,44.9,> 100 µM,,,38,> 100 µM,62.5,> 100 µM,82.5,> 100
Cn1c(=O)oc2cc(C3CCC(=O)N3Cc3csc(-c4ccccc4)n3)ccc21 (centres undefined),,> 100,,> 100 µM,,> 100,,> 100 µM,,,,,,> 100 µM,,,,> 100 µM,,> 100
COc1ccc(-c2ccc(C3CC(c4ccccc4)=NN3)o2)c([N+](=O)[O-])c1 (centres undefined),64.7,> 100,56.4 µM,> 100 µM,36.5,> 100,,,31.8,> 100 µM,,,34.4,> 100 µM,29.8,> 100 µM,,,39.1,> 100
CC(=O)N1[C@H](C(=O)O)CS[C@H]1c1ccc(F)cc1,,> 100,,> 100 µM,,> 100,,> 100 µM,,,,,,> 100 µM,,> 100 µM,,> 100 µM,,> 100
CC(C)(C)C#COC(=O)c1ccccc1,,> 100,,> 100 µM,,> 100,,> 100 µM,,,,,,> 100 µM,,> 100 µM,,> 100 µM,,> 100

Structure (SMILES),GI50 [1] [µM],TGI [1] [µM],GI50 [2],TGI [2],GI50 [3] [µM],TGI [3] [µM],GI50 [4] [µM],TGI [4],GI50 [5] [µM],TGI [5],GI50 [6] [µM],TGI [6],GI50 [7] [µM],TGI [7],GI50 [8] [µM],TGI [8],GI50 [9] [µM],TGI [9],GI50 [10] [µM],TGI [10] [µM]
O=c1c2cccnc2ncn1CCCN1CCCCC1,,> 100,,> 100 µM,,> 100,,> 100 µM,,,,,,> 100 µM,,> 100 µM,,,,> 100
C/C(=N/NC(=S)Nc1ccccc1)c1nc2ccc(Cl)cc2[nH]1,0.129,0.686,,,0.0351,0.522,0.0989,0.457 µM,,,0.205,1.79 µM,,,0.0777,1.26 µM,0.236,0.85 µM,0.406,1.52
COc1ccc(-c2ccc(CC(=O)O)cc2)cc1OC,,,,> 100 µM,,> 100,,> 100 µM,,,,,,> 100 µM,,> 100 µM,,> 100 µM,,> 100
COc1cc(C2CC(c3ccc(Nc4nc(NCCO)nc(NCCO)n4)cc3)=NN2c2cc(Cl)cc(Cl)c2)cc(OC)c1OC (centres undefined),1.2,2.57,1.75 µM,3.82 µM,1.77,3.8,1.7,3.34 µM,1.26,2.94 µM,1.45,3.44 µM,,,1.62,3.13 µM,1.86,3.87 µM,2.02,4.97
O=C1NC(O)n2c(=O)[nH]c(=O)n21 (centres undefined),,> 100,,> 100 µM,,> 100,,> 100 µM,,,,,,> 100 µM,,> 100 µM,,> 100 µM,,> 100
COC(=O)C1C=CCC2CCCCC21N1CCCC1 (centres undefined),,> 100,,> 100 µM,,> 100,,> 100 µM,,,,,,> 100 µM,,> 100 µM,,> 100 µM,,
C1=CC(=P(c2ccccc2)(c2ccccc2)c2ccccc2)C=C1,,29.1,,43.4 µM,,26,,30.3 µM,,,,,,32.3 µM,,23.7 µM,,20.3 µM,,54.3
OCC(O)C(O)C(O)C(/C=N\Nc1ncnc2c(Br)cc(Br)cc12)=N/Nc1ncnc2c(Br)cc(Br)cc12 (centres undefined),,33.9,5.09 µM and 24.8 µM,18.8 µM and > 100 µM,,,,16.4 µM and 18.7 µM,,37.4 µM and > 100 µM,,15.7 µM and > 100 µM,,26.7 µM and > 100 µM,,16.5 µM and > 100 µM,,33.2 µM and > 100 µM,,
Cc1c(C)c([N+](=O)[O-])c2c(c1N)C(=O)c1ccccc1C2=O,,> 100,,> 100 µM,,,,> 100 µM,,,,,,,,> 100 µM,,> 100 µM,,> 100
O=c1c(Cc2ccccc2)c(O)cc2n1CCC2,,> 100,,> 100 µM,,> 100,,> 100 µM,,,,,,> 100 µM,,> 100 µM,,> 100 µM,,> 100
Cc1cc2c(c(C(=O)O)c1C)-c1cccc(Cl)c1C2=O,,,,> 100 µM,,> 100,,> 100 µM,,,,,,> 100 µM,,> 100 µM,,> 100 µM,,> 100
CCOc1ccc(NC(=O)/C(CC(=O)c2c[n+](=O)c3ccccc3n2[O-])=N\OCCCc2ccccc2)cc1,,> 100,,> 100 µM,,> 100,,,,,,,,> 100 µM,,> 100 µM,,> 100 µM,,> 100
CCCCNC(c1ccc(Cl)cc1)C(O)c1ccc(Cl)cc1 (centres undefined),1.83,3.57,2.16 µM,10.6 µM,1.76,4.41,1.73,3.2 µM,1.95,5.03 µM,,,1.82,6.63 µM,1.98,4.83 µM,2.25,5.03 µM,2.25,7.59
CN1CCCC2[C@@H]3CCC4c5nonc5CC[C@]4(C)C3CC[C@@]21C (some centres undefined),,> 100,,> 100 µM,,> 100,,> 100 µM,,,,,,> 100 µM,,,,> 100 µM,,> 100
CC(=O)Nc1ccc(C2CC(c3ccc([N+](=O)[O-])cc3)=Nc3ccccc3S2)cc1 (centres undefined),,33.5,,33 µM,,34.3,,,,,,,,77.7 µM,,67.4 µM,,29.2 µM,,
CCN(CC)C(=S)SSC(C)C,18.4,42.9,14.3 µM,30.5 µM,,,11.6,24.2 µM,,,14.6,32.5 µM,5.99,19.2 µM,,,21.7,95.8 µM,16.4,36
COc1cc(C)c2c(c1)CN1CN2Cc2cc(OC)cc(C)c21,,> 100,,> 100 µM,,> 100,,14.4 µM,,,,,,> 100 µM,,54.2 µM,,,,> 100
COc1cc2c(cc1OCCNC(=O)/C=C1\C[C@H]3C=Nc4cc(OCc5ccccc5)c(OC)cc4C(=O)N3C1)N=C[C@@H]1CCCN1C2=O,,,2.68 µM,15.8 µM,13.6,30.6,1.3,20.8 µM,2.62,9.2 µM,5.11,23.4 µM,32.3,> 100 µM,2.19,5.49 µM,,,9.26,27
CCOc1c(Br)cc(Br)cc1C=C(C#N)C#N,,6.21,,> 10 µM,,> 10,,> 10 µM,,> 10 µM,,,,,,> 10 µM,,,,> 10
